# Experiments:
# Assay type in all cases: in vivo
# [1] = tested on: Abutilon theophrasti; assay: Post-emergence herbicidal activity, glasshouse pot test; parameters: key: 0 = no damage to plant, 5 = total damage to plant; conditions: Application post-emergence, rate 1000 g/ha, evaluated after 13 days
# Method: (§1) Seeds of a variety of test species were sown in standard soil in pots. After 8 days cultivation (post-emergence) under controlled conditions in a glasshouse (at 24/16° C., day/night; 14 hours light; 65% humidity), the plants were sprayed with an aqueous spray solution derived from the formulation of the technical active ingredient in acetone/water (50:50) solution containing 0.5% Tween 20 (polyoxyethelyene sorbitan monolaurate, CAS RN 9005-64-5). The test plants were then grown in a glasshouse under controlled conditions (at 24/16° C., day/night; 14 hours light; 65% humidity) and watered twice daily. After 13 days, the test was evaluated (5=total damage to plant; 0=no damage to plant).
# (§2) ABUTH=Abutilon theophrasti; SOLNI=Solanum nigrum; AMARE=Amaranthus retroflexus; SETFA=Setaria faberi; ALOMY=Alopecurus myosuroides; ECHCG=Echinochloa crus-galli, ZEAMX=zea mays.
# [2] = tested on: Echinochloa crus-galli; assay: as above; parameters: key: 0 = no damage to plant, 5 = total damage to plant; conditions: Application post-emergence, rate 1000 g/ha, evaluated after 13 days
# Method: as §1, §2
# [3] = tested on: zea mays; assay: as above; parameters: key: 0 = no damage to plant, 5 = total damage to plant; conditions: Application post-emergence, rate 1000 g/ha, evaluated after 13 days
# Method: as §1, §2
# [4] = tested on: Alopecurus myosuroides; assay: as above; parameters: key: 0 = no damage to plant, 5 = total damage to plant; conditions: Application post-emergence, rate 1000 g/ha, evaluated after 13 days
# Method: as §1, §2
# [5] = tested on: Amaranthus retroflexus; assay: as above; parameters: key: 0 = no damage to plant, 5 = total damage to plant; conditions: Application post-emergence, rate 1000 g/ha, evaluated after 13 days
# Method: as §1, §2
# [6] = tested on: Setaria faberi; assay: as above; parameters: key: 0 = no damage to plant, 5 = total damage to plant; conditions: Application post-emergence, rate 1000 g/ha, evaluated after 13 days
# Method: as §1, §2
# [7] = tested on: Abutilon theophrasti; assay: Pre-emergence herbicidal activity, glasshouse pot test; conditions: pre-emergence spray, rate 1000 g/ha, evaluated after 13 days, scale 0-5
# Method: as §1, with “After” for “After 8 days”, “for one day (pre-emergence)” for “(post-emergence)”
# as §2
# [8] = tested on: Echinochloa crus-galli; assay: as above; conditions: pre-emergence spray, rate 1000 g/ha, evaluated after 13 days, scale 0-5
# Method: as §1, with “After” for “After 8 days”, “for one day (pre-emergence)” for “(post-emergence)”
# as §2
# [9] = tested on: zea mays; assay: as above; conditions: pre-emergence spray, rate 1000 g/ha, evaluated after 13 days, scale 0-5
# Method: as §1, with “After” for “After 8 days”, “for one day (pre-emergence)” for “(post-emergence)”
# as §2
# [10] = tested on: Alopecurus myosuroides; assay: as above; conditions: pre-emergence spray, rate 1000 g/ha, evaluated after 13 days, scale 0-5
# Method: as §1, with “After” for “After 8 days”, “for one day (pre-emergence)” for “(post-emergence)”
# as §2
# [11] = tested on: Amaranthus retroflexus; assay: as above; conditions: pre-emergence spray, rate 1000 g/ha, evaluated after 13 days, scale 0-5
# Method: as §1, with “After” for “After 8 days”, “for one day (pre-emergence)” for “(post-emergence)”
# as §2
# [12] = tested on: Setaria faberi; assay: as above; conditions: pre-emergence spray, rate 1000 g/ha, evaluated after 13 days, scale 0-5
# Method: as §1, with “After” for “After 8 days”, “for one day (pre-emergence)” for “(post-emergence)”
# as §2
Molecule,ABUTH herbicidal damage score [1],ECHCG herbicidal damage score [2],ZEAMX herbicidal damage score [3],ALOMY herbicidal damage score [4],AMARE herbicidal damage score [5],SETFA herbicidal damage score [6],"ABUTH damage score, application pre-emergence [7]","ECHCG damage score, application pre-emergence [8]","ZEAMX damage score, application pre-emergence [9]","ALOMY damage score, application pre-emergence [10]","AMARE damage score, application pre-emergence [11]","SETFA damage score, application pre-emergence [12]"
6-(4-chloro-2-hydroxy-3-methyl-5-oxo-2H-pyrrol-1-yl)-4-(trifluoromethyl)pyridine-3-carbonitrile [AF3],5,5,4,5,5,5,0,4,2,3,2,4
CCO/C=C\c1cnc(N2C(=O)C(Cl)=C(C)C2O)cc1C(F)(F)F (stereo not drawn) [AF1],5,5,2,5,5,5,1,2,1,1,4,2
CC(C)=C(C)c1cnc(N2C(=O)C(Cl)=C(C)C2O)cc1C(F)(F)F (stereo not drawn) [AF2],5,5,1,4,5,5,1,3,0,0,3,4
CC1=C(Cl)C(=O)N(c2nccc(C(F)(F)F)c2F)C1O (stereo not drawn) [AF5],5,5,4,5,5,5,4,4,4,4,5,4
CC(=O)OC1C(C)=C(Cl)C(=O)N1c1cc(C(F)(F)F)ccn1 (stereo not drawn) [AF10],5,5,4,5,5,5,5,5,0,3,5,4
CSc1ccc(N2C(=O)C(Cl)=C(C)C2OC(C)=O)nc1 (stereo not drawn) [AF19],3,3,1,4,5,3,0,0,0,0,0,0
CC1=C(Cl)C(=O)N(c2cc(C(C)C)c(C(=O)OC(C)C)cn2)C1O (stereo not drawn) [AF23],4,5,3,4,5,4,1,5,1,4,5,2
CC1=C(Cl)C(=O)N(c2cc(/C=C/C(C)(C)C)ccn2)C1O (stereo not drawn) [AF26],1,2,2,0,1,0,0,0,0,0,0,0
CC1=C(Cl)C(=O)N(c2cc(C(F)(F)F)cc[n+]2[O-])C1O (stereo not drawn) [AF28],3,1,1,1,0,3,0,0,0,0,0,0
CC(=O)c1ccnc(N2C(=O)C(Cl)=C(C)C2O)c1 (stereo not drawn) [AF30],1,2,1,2,1,3,3,2,1,1,3,1
CC1=C(Cl)C(=O)N(c2cc(C(C)(C)F)ccn2)C1O (stereo not drawn) [AF31],5,5,5,5,5,5,5,4,2,3,5,5
CC1=C(Cl)C(=O)N(c2cc(C(C)(F)F)ccn2)C1O (stereo not drawn) [AF32],5,5,4,4,5,5,5,4,2,3,5,5
CC1=C(Cl)C(=O)N(c2cc(C(F)F)ccn2)C1O (stereo not drawn) [AF34],5,5,3,5,4,5,5,5,2,3,3,5
CC1=C(Cl)C(=O)N(c2cc(C(C)(C)C)ccn2)C1O (stereo not drawn) [AF36],5,5,4,4,3,5,5,5,2,4,5,5
CC1=C(Cl)C(=O)N(c2cc(C(F)(F)F)cc(Cl)n2)C1O (stereo not drawn) [AF37],2,4,1,4,0,4,0,0,0,3,0,1

# Source: patent US9963445B2, “Chemical compounds” (SYNGENTA PARTICIPATIONS AG, priority 2013, dated 2018)
